Measured values published in patent US20220031607A1, “INJECTION COMPOSITION CONTAINING FAB I INHIBITOR, AND PREPARATION METHOD THEREFOR” (CRYSTALGENOMICS, INC., priority 2019, published 2022).
≈ marks a conversion by molar mass, not a printed value. Where two headings read alike, the source gives them in different places.

Legend:
Type in all cases: cell-based
[1] = test system: Methicillin-susceptible Staphylococcus aureus strains; assay: Drug susceptibility (MIC) of methicillin-susceptible clinical isolates
Description: (§1) In order to verify the inhibitory effect of the compound of formula 1 on antibiotic-resistant strains, drug susceptibility was evaluated by treating the compound of formula 1 with Staphylococcus aureus phenotype isolated from each patient. In an in vitro test for antibiotic development, the most important result can be MIC90 (minimum inhibitory concentration required to inhibit the growth of 90% of the total bacterial population). […] Appelbaum at Hershey Hospital who is recognized for its authority in the field of anti-infection worldwide.

[2] = test system: Methicillin-resistant Staphylococcus aureus (MRSA) strains; assay: Drug susceptibility (MIC) of MRSA clinical isolates
Description: as §1

[3] = test system: Staphylococcus aureus ATCC 29213 (MSSA, standard strain); assay: Susceptibility test (MIC), standard strain
Description: (§2) For the compound of formula 1, pharmacokinetic/pharmacodynamic experiments were conducted using a mouse infection model. To this end, experiments were conducted with Staphylococcus aureus ATCC 29213 (MSSA, standard strain) and 13B-382 (MRSA, clinical strain). As a medium, Mueller-Hinton broth or Cation-adjusted Mueller-Hinton broth was used. For the susceptibility test (minimum inhibitory concentration (MIC)), the compound of formula 1 was used.

[4] = test system: Staphylococcus aureus 13B-382 (MRSA, clinical strain); assay: Susceptibility test (MIC), clinical strain
Description: as §2

[5] = Methicillin-susceptible, n = 103
[6] = Staphylococcus aureus, Methicillin-susceptible, n = 103, read-out: MIC50
[7] = Staphylococcus aureus, Methicillin-susceptible, n = 103, read-out: MIC90
[8] = Staphylococcus aureus, MRSA, Methicillin-resistant, n = 100, read-out: MIC50
[9] = Staphylococcus aureus, MRSA, Methicillin-resistant, n = 100, read-out: MIC90

Compound | MIC Range [1, 5] | MIC50 [1, 6] | MIC90 [1, 7] | MIC50 [2, 8] | MIC90 [2, 9] | further results
CN[C@H](CC(C)C)C(=O)N[C@H]1C(=O)N[C@@H](CC(N)=O)C(=O)N[C@H]2C(=O)N[C@H]3C(=O)N[C@H](C(=O)N[C@H](C(=O)O)c4cc(O)cc(O)c4-c4cc3ccc4O)[C@H](O)c3ccc(c(Cl)c3)Oc3cc2cc(c3O[C@@H]2O[C@H](CO)[C@@H](O)[C@H](O)[C@H]2O[C@H]2C[C@](C)(N)[C@H](O)[C@H](C)O2)Oc2ccc(cc2Cl)[C@H]1O [Vancomycin] | 1.0 to 2.0 µg/mL |  |  |  |  | MIC50 ([1]; Staphylococcus aureus): 1 µg/mL (≈ 0.69 µM); MIC90 ([1]; Staphylococcus aureus): 2 µg/mL (≈ 1.38 µM); MIC50 ([2]; Staphylococcus aureus, MRSA): 1 µg/mL (≈ 0.69 µM); MIC90 ([2]; Staphylococcus aureus, MRSA): 2 µg/mL (≈ 1.38 µM); MIC ([2]; Staphylococcus aureus, MRSA / VRSA): > 64 µg/mL; MIC ([3]; Staphylococcus aureus): 0.5 µg/mL (≈ 0.345 µM); MIC ([4]; Staphylococcus aureus): 1 µg/mL (≈ 0.69 µM)
CC[C@H]1OC(=O)[C@H](C)[C@@H](O[C@H]2C[C@@](C)(OC)[C@@H](O)[C@H](C)O2)[C@H](C)[C@@H](O[C@@H]2O[C@H](C)C[C@H](N(C)C)[C@H]2O)[C@](C)(O)C[C@@H](C)CN(C)[C@H](C)[C@@H](O)[C@]1(C)O [Azithromycin] |  | 1 µg/mL (≈ 1.34 µM) | > 64 µg/mL | > 64 µg/mL | > 64 µg/mL | 
Cc1onc(-c2ccccc2)c1C(=O)N[C@@H]1C(=O)N2[C@@H]1SC(C)(C)[C@@H]2C(=O)O [Oxacillin] |  |  |  |  |  | MIC ([3]; Staphylococcus aureus ATCC 29213, read-out: MIC): 0.25 µg/mL (≈ 0.623 µM); MIC ([4]; Staphylococcus aureus 13B-382, read-out: MIC): 16 µg/mL (≈ 39.9 µM)
Teicoplanin | 0.125 to 8.0 µg/mL |  |  |  |  | MIC50 [1, 5]: 1 µg/mL; MIC90 [1, 5]: 2 µg/mL; MIC50 ([2]; Methicillin-resistant, n = 100): 1 µg/mL; MIC90 ([2]; Methicillin-resistant, n = 100): 2 µg/mL
CCCCCCCCCC(=O)N[C@@H](Cc1c[nH]c2ccccc12)C(=O)N[C@H](CC(N)=O)C(=O)N[C@@H](CC(=O)O)C(=O)N[C@@H]1C(=O)NCC(=O)N[C@@H](CCCN)C(=O)N[C@@H](CC(=O)O)C(=O)N[C@H](C)C(=O)N[C@@H](CC(=O)O)C(=O)NCC(=O)N[C@H](CO)C(=O)N[C@@H]([C@H](C)CC(=O)O)C(=O)N[C@@H](CC(=O)c2ccccc2N)C(=O)O[C@@H]1C [Daptomycin] | 0.25 to 2.0 µg/mL | 1 µg/mL (≈ 0.617 µM) | 1 µg/mL (≈ 0.617 µM) | 0.5 µg/mL (≈ 0.309 µM) | 0.5 µg/mL (≈ 0.309 µM) | MIC Range ([2]; Methicillin-resistant, n = 100): 0.25 to 4.0 µg/mL
CC(=O)NC[C@H]1CN(c2ccc(N3CCOCC3)c(F)c2)C(=O)O1 [Linezolid] | 0.25 to 2.0 µg/mL | 1 µg/mL (≈ 2.96 µM) | 2 µg/mL (≈ 5.93 µM) | 1 µg/mL (≈ 2.96 µM) | 2 µg/mL (≈ 5.93 µM) | MIC Range ([2]; Methicillin-resistant, n = 100): 0.25 to 2.0 µg/mL
C[C@H]1COc2c(N3CCN(C)CC3)c(F)cc3c(=O)c(C(=O)O)cn1c23 [Levofloxacin] | ≤0.06 to 32.0 µg/mL | 0.25 µg/mL (≈ 0.692 µM) | 4 µg/mL (≈ 11.1 µM) | 1 µg/mL (≈ 2.77 µM) | > 32 µg/mL | 
